This note sets out measurements from paper PMC10529594, “Strasseriolides display in vitro and in vivo activity against trypanosomal parasites and cause morphological and size defects in Trypanosoma cruzi” (PLOS Neglected Tropical Diseases, 2023).

What is called EC50 is the concentration at which the effect is half-maximal. As a reminder, the Hill slope is a measure of the steepness of the concentration-response curve.

Each structure is given as a SMILES string. Where a name gives a salt, the structure may show the parent alone. Read-outs that look alike come from different tables or passages of the source.

In one assay the test system is T. cruzi trypomastigotes. Put plainly: T. cruzi trypomastigote viability / rate of action assay (CellTiter-Glo bioluminescence). The following applies: for EC50: Trypanosoma cruzi, read-out: EC50; for EC50 / EC90/EC50 / Hill slope: Trypomastigotes. Type of assay: cell-based, Trypanosoma cruzi. As to the method: Tulahuen T. cruzi trypomastigotes were recovered 6 days post infection from the supernatant of harvested infected L6 cells cultures after 3 hours at 37°C. 90 μL of parasite culture at a density of 5 × 10^6 cells in RPMI 1640 media were dispensed into 96 Nunc flat bottom assay plates containing 10 μL of each compound.
Parasite viability was assessed upon 24, 48 and 72 hour incubation at 37°C in 5% CO2 by adding 50 μL of CellTiter-Glo viability reagent to white 96-well microplates. After signal stabilization, bioluminescence was read. Compound concentrations ranged from 0.1 μM to 50 μM and final maximal DMSO percentage in the well was 0.05%. Results were normalized to […] control columns in each plate.
On the technique in general: Cellular ATP, detected with luciferase, serves as a proxy for viable cell number.

For assay [1], the system named is intracellular T. cruzi amastigotes. Put plainly: Rate of kill, intracellular T. cruzi amastigotes (CPRG, 96-well). Type of assay: cell-based, Trypanosoma cruzi. The following applies: Amastigotes; for EC50: Trypanosoma cruzi. The procedure: For rate of kill experiments, in vitro activity against intracellular T. cruzi amastigotes was analyzed at early time points: 24, 48 and 72 hours. The standard colorimetric transgenic assay was established in a 96-well format, with serial dilutions of compounds and 0.05% as the final maximal DMSO percentage per well. In these experiments L6 host cells were included as negative controls and CPRG conversion was monitored at 585 nm using a Versamax microplate reader (Molecular devices).

The subject of assay [2] is T. b. brucei 427 bloodstream forms. Put plainly: Resazurin-based T. b. brucei assay. The following applies: Trypanosoma brucei; T. b. brucei 427 bloodstream forms, 72 h; read-out: EC50 T. brucei. The class given is cell-based. The procedure:
Parasites strains adapted to culture in vitro were used. T. b. brucei Lister 427 bloodstream form parasites (information about the identity and genealogy of this strain is available at The Rockefeller University website) were grown in HMI-9 medium supplemented with 10% heat-inactivated fetal bovine serum (iFBS).
Cells in logarithmic phase of growth were added using a Multidrop dispenser (45 μL, 500 bloodstream T. b. brucei parasites per well) to 384-well Corning assay plates already containing 5 μL of each compound and controls, and incubated for 72 hours at 37°C. 10 μL of resazurin were added per well, and the plates were further incubated for 6 hours at 37°C. The final fluorescence was determined at 550–590 nm. Pentamidine at 40 nM and 0.0067% DMSO were used as […] growth controls, respectively.

In assay [3] the test system is L. donovani MHOM/ET/67/HU3 transgenic intracellular amastigotes. Put plainly: L. donovani intracellular amastigote assay (luciferase, THP-1 macrophages). The class given is cell-based. The conditions noted are these: Leishmania donovani, THP-1, 72 h, read-out: EC50 L. donovani. The procedure:
Leishmania donovani MHOM/ET/67/HU3 cells with the luciferase gene integrated into the parasite genome was obtained as described. Parasites were grown at 28°C in RPMI 1640-modified medium supplemented with 20% heat-inactivated fetal bovine serum (iFBS, Invitrogen) with […] of hygromycin B.
THP-1 cells were differentiated into macrophages with 20 ng/mL of PMA in a 96-well plate at 3 × 10^4 cells per well for 48 hours followed by 24 hours of culture in fresh medium. Cells were then infected with transgenic stationary L. donovani MHOM/ET/67/HU3 promastigotes expressing the luciferase gene at a multiplicity of infection (MOI) of 10. A volume of 100 μL of culture media containing the test compounds was added to each well and the plates were incubated at 37°C for 72 hours. Luminescence was measured using the Promega kit luciferase assay system.

As to `CC1CS(=O)(=O)CCN1/N=C/c1ccc([N+](=O)[O-])o1` (stereo not shown) [Nifurtimox, nifurtimox], the “RLU Average, trypomastigote viability” value in the assay on T. cruzi trypomastigotes (24 h, 0.0195312 µM, untreated 165759) worked out at 169266 RLU; in the assay with T. cruzi trypomastigotes (24 h, 0.0390625 µM, untreated 165759), 166443 RLU; in the assay on T. cruzi trypomastigotes (24 h, 0.078125 µM, untreated 165759), 165831 RLU; with T. cruzi trypomastigotes (24 h, 0.15625 µM, untreated 165759), 160072 RLU; in the assay on T. cruzi trypomastigotes (24 h, 0.3125 µM, untreated 165759), 149962 RLU; in the assay on T. cruzi trypomastigotes (24 h, 0.625 µM, untreated 165759) it was 139314 RLU. Further, the “RLU Average, trypomastigote viability” value with T. cruzi trypomastigotes (24 h, 1.25 µM, untreated 165759) was found to be 111524 RLU; with T. cruzi trypomastigotes (24 h, 2.5 µM, untreated 165759), 65827 RLU; in the assay on T. cruzi trypomastigotes (24 h, 5 µM, untreated 165759), 11749 RLU; with T. cruzi trypomastigotes (24 h, 10 µM, untreated 165759), 1446 RLU; in the assay on T. cruzi trypomastigotes (48 h, 0.0195312 µM, untreated 134778) it was 139199 RLU; with T. cruzi trypomastigotes (48 h, 0.0390625 µM, untreated 134778), 135603 RLU. The “RLU Average, trypomastigote viability” value in the assay with T. cruzi trypomastigotes (48 h, 0.078125 µM, untreated 134778) was found to be 135814 RLU; in the assay on T. cruzi trypomastigotes (48 h, 0.15625 µM, untreated 134778), 121189 RLU; with T. cruzi trypomastigotes (48 h, 0.3125 µM, untreated 134778), 101689 RLU; in the assay on T. cruzi trypomastigotes (48 h, 0.625 µM, untreated 134778) it was 74973 RLU; with T. cruzi trypomastigotes (48 h, 1.25 µM, untreated 134778) it was 27237 RLU; in the assay with T. cruzi trypomastigotes (48 h, 2.5 µM, untreated 134778), 4248 RLU. In addition, the “RLU Average, trypomastigote viability” value is reported as 1304 RLU with T. cruzi trypomastigotes (48 h, 5 µM, untreated 134778); 430 RLU with T. cruzi trypomastigotes (48 h, 10 µM, untreated 134778); 78773 RLU in the assay with T. cruzi trypomastigotes (72 h, 0.0195312 µM, untreated 74303); 76780 RLU in the assay on T. cruzi trypomastigotes (72 h, 0.0390625 µM, untreated 74303); 75817 RLU in the assay on T. cruzi trypomastigotes (72 h, 0.078125 µM, untreated 74303); 65552 RLU in the assay on T. cruzi trypomastigotes (72 h, 0.15625 µM, untreated 74303). Further, the “RLU Average, trypomastigote viability” value is given as 53878 RLU in the assay on T. cruzi trypomastigotes (72 h, 0.3125 µM, untreated 74303); 44434 RLU in the assay with T. cruzi trypomastigotes (72 h, 0.625 µM, untreated 74303); 6874 RLU in the assay on T. cruzi trypomastigotes (72 h, 1.25 µM, untreated 74303); 861 RLU in the assay on T. cruzi trypomastigotes (72 h, 2.5 µM, untreated 74303); 764 RLU in the assay on T. cruzi trypomastigotes (72 h, 5 µM, untreated 74303); 553 RLU in the assay with T. cruzi trypomastigotes (72 h, 10 µM, untreated 74303). Moreover, the EC50 with T. cruzi trypomastigotes (24 h) amounted to 2080 nM; in the assay with T. cruzi trypomastigotes (48 h), 640 nM; with T. cruzi trypomastigotes (72 h), 600 nM; in assay [1] (24 h), 300 nM; in assay [1] (48 h), 150 nM; in assay [1] (72 h), 130 nM. Further, the EC90/EC50 with T. cruzi trypomastigotes (24 h) is 4.04; in the assay on T. cruzi trypomastigotes (48 h) it was 3.61; in the assay with T. cruzi trypomastigotes (48 h, listed as nifurtimox) it was 3.6; with T. cruzi trypomastigotes (72 h), 3.33; in the assay with T. cruzi trypomastigotes (72 h, listed as nifurtimox), 3.3; in assay [1] (24 h) it was 4.07. Moreover, the EC90/EC50 in assay [1] (48 h) was found to be 4.16; in assay [1] (72 h), 3.03. Further, the Hill slope was 1.58 in the assay on T. cruzi trypomastigotes (24 h); 1.71 in the assay with T. cruzi trypomastigotes (48 h); “below 2.1” in the assay on T. cruzi trypomastigotes (48 h, listed as nifurtimox); 1.83 in the assay with T. cruzi trypomastigotes (72 h); “below 2.1” with T. cruzi trypomastigotes (72 h, listed as nifurtimox); 1.60 in assay [1] (24 h). Moreover, the values for the Hill slope in assay [1] (48 h) and in assay [1] (72 h) were 1.55 and 1.98, respectively.

Consider `CC[C@@H]([C@H](C)O)n1ncn(-c2ccc(N3CCN(c4ccc(OC[C@@H]5CO[C@@](Cn6cncn6)(c6ccc(F)cc6F)C5)cc4)CC3)cc2)c1=O` [Posaconazole, posaconazole], for which the “effect against extracellular forms (trypomastigotes)” value in the assay with T. cruzi trypomastigotes (2 μM, 24 and 48 hours) is “no effect”. Further, in assay [1] (24 h), the EC90/EC50 was found to be 5.16, the Hill slope turned out to be 1.33 and the EC50 turned out to be 5410 nM. In assay [1] (48 h), this compound gave an EC90/EC50 of 6.41, a Hill slope of 1.20 and an EC50 of 0.8 nM. In assay [1] (72 h), the EC90/EC50 was 1.83, the Hill slope was determined as 3.65 and the EC50 is 0.7 nM.

Consider `N=C(N)c1ccc(OCCCCCOc2ccc(C(=N)N)cc2)cc1` [Pentamidine, pentamidine isethionate salt, reference compound], for which, in assay [2], the EC50 is 2 nM.

With `C[C@@H]1[C@H](O)[C@@H](C)/C=C/C=C/C=C/C=C/C=C/C=C/C=C/[C@H](O[C@@H]2O[C@H](C)[C@@H](O)[C@H](N)[C@@H]2O)C[C@@H]2O[C@](O)(C[C@@H](O)C[C@@H](O)[C@H](O)CC[C@@H](O)C[C@@H](O)CC(=O)O[C@H]1C)C[C@H](O)[C@H]2C(=O)O` [Amphotericin B, amphotericin B, reference compound], in assay [3], the EC50 was 53 nM.
